Laboratory results reported in US20220249480A1, “APPLICATION OF FLUORO-SUBSTITUTED 2-AMINOTHIAZOLE-5-AROMATIC CARBOXAMIDE” (HUNAN WARRANT PHARMACEUTICAL CO., LTD, priority 2019, published 2022).

Key:
in vitro = settings: human, microsomes; for CLint scaled at 1 μM / half-life at 1 μM: pH 7.4
Description: Test compound concentration: 1.0 μM
Buffer solution: 0.05 M phosphate buffer solution (pH 7.4)
Human liver microsomes: Corning® UltraPool™ HLM 150, 20 mg/mL
NADPH concentration: 1.0 mM
Total reaction volume: 850 μL
Incubation temperature: 37° C.
Pre-incubation time: 5 min (no NADPH added)
Sampling time: 0, 5, 10, 15, 20 and 30 min (0, 15 and 30 min for control group)
Sampling volume: 85 μL per time point
Test compounds: Verapamil, Dasatinib, and the compound of Formula I
a) Solutions of 10 mM test compounds in DMSO were diluted to 100 μM using acetonitrile:water (50:50).
c) 2.5 mM NADPH solution was formulated.
d) The liver microsomal protein, buffer solution, and test compound were pipetted sequentially into 1.5 ml incubation tubes according to the volume in the experimental design table, and incubated at 37° C. for 5 min with constant shaking.
e) 85 μL of the quenching reagent was added into a 250 μL quenching vial which was then placed on an ice bath.
f) The reaction was initiated by adding NADPH solution, and 85 μL sample was immediately taken and mixed evenly in the quenching vial with controlled incubation and quenching, this is referred to 0 min sampling point. The sample was capped, vortexed and centrifuged at 4° C.
g) The quenching solution was placed at 4° C. for 10 min for the precipitation of the protein.
h) The operations of other sampling points was similar to that of the 0 min sampling point.
i) The sample quenching reaction mixture solution was thoroughly mixed evenly and centrifuged at 14000 rpm for 10 min at room temperature.
j) The supernatant (˜100 μl) was pipetted for LC-MS analysis.
Instrument: Waters® ACQUITY HPLC-Xevo G2-XS QTof
Chromatographic column: ACQUITY UPLC® BEH C18 column 2.1×50 mm, 1.7 μm
Mobile phase: mobile phase A was 0.1% formic acid in water and mobile phase B was 0.1% formic acid in acetonitrile.
The amount of the parent compound at each time point was determined based on the peak area ratio (compound area/warfarin area).
The intrinsic clearance (CLint) was calculated by the following equation:
V(μL/mg)=volume of incubation (μL)/protein amount in the incubation (mg)

ABL1 = target: T1, ABL1 (Homo sapiens, UniProt P00519); test: In vitro kinase inhibition activity (33P-ATP radiometric filter assay), ABL1; assay type: biochemical
T1 construct: purchased Invitrogen
T1 sequence (P00519 whole entry): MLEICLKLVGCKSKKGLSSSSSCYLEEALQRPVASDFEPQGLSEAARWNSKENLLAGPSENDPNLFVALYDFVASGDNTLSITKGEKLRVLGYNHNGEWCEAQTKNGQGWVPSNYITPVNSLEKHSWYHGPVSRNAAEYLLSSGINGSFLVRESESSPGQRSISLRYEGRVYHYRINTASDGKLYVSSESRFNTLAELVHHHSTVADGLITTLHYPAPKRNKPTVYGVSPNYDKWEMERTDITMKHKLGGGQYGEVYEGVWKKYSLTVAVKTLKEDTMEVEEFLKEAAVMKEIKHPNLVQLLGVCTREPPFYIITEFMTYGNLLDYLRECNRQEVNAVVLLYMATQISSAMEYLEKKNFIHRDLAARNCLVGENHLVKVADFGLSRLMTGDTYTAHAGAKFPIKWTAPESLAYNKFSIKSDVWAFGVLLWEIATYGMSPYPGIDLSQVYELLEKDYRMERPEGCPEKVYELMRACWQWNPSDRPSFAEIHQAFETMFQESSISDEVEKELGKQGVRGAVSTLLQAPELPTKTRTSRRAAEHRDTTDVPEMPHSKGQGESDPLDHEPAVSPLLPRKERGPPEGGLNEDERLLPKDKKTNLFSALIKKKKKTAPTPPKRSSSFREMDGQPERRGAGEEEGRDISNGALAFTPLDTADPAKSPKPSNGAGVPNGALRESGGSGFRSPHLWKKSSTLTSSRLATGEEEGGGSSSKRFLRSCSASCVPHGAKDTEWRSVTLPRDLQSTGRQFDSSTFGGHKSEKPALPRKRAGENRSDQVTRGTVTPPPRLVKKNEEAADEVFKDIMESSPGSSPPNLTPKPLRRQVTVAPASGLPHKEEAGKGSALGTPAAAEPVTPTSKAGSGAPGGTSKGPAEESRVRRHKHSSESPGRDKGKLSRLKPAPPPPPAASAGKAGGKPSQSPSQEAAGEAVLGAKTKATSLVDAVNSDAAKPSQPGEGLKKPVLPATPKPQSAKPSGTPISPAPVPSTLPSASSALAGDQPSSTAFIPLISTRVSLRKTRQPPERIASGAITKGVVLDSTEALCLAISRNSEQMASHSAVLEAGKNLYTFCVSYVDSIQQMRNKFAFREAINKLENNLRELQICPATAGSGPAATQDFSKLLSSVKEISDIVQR
Description: (§1) Test group: 50 μl DMSO was used to dissolve the compound of Formula I and Dasatinib, respectively, and the final drug concentration was 10 mM.
(§2) Starting concentration of drugs in the test group: 1 μM
(§3) Buffer solution conditions: 20 mM Hepes (pH 7.5), 10 mM MgCl2, 1 mM EGTA, 0.02% Brij35, 0.02 mg/ml BSA, 0.1 mM Na3VO4, 2 mM DTT, 1% DMSO.
(§4) Note: Required enzyme cofactor were added separately to each kinase reaction.
(§5) a) An indicated substrate was prepared in a freshly made reaction buffer.
(§6) b) Any required enzyme cofactors were added into the substrate solution described above.
(§7) c) The indicated kinase was added into the substrate solution and gently mixed.
(§8) d) The test drugs were added into the kinase reaction mixture using Echo 550.
(§9) e) ^33P-ATP (specific radioactivity 0.01 μCi/μl) was added into the reaction mixture, and the reaction was initiated.
(§10) g) The reaction was spotted onto P81 ion-exchange paper.
(§11) h) The filter was washed with 0.75% phosphoric acid.
(§12) i) The radioactive phosphorylated substrate remaining on the filter paper was measured.
(§13) Kinase activity data are expressed as the percent of the remaining kinase activity in the test samples compared with the reactions of the vehicle (dimethyl sulfoxide). IC50 values and curve fitting were obtained using Prism4 software (GraphPad).

BTK = target: T2, BTK (Homo sapiens, UniProt Q06187); test: In vitro kinase inhibition activity (33P-ATP radiometric filter assay), BTK; assay type: biochemical
T2 construct: purchased Invitrogen
T2 sequence (Q06187 whole entry): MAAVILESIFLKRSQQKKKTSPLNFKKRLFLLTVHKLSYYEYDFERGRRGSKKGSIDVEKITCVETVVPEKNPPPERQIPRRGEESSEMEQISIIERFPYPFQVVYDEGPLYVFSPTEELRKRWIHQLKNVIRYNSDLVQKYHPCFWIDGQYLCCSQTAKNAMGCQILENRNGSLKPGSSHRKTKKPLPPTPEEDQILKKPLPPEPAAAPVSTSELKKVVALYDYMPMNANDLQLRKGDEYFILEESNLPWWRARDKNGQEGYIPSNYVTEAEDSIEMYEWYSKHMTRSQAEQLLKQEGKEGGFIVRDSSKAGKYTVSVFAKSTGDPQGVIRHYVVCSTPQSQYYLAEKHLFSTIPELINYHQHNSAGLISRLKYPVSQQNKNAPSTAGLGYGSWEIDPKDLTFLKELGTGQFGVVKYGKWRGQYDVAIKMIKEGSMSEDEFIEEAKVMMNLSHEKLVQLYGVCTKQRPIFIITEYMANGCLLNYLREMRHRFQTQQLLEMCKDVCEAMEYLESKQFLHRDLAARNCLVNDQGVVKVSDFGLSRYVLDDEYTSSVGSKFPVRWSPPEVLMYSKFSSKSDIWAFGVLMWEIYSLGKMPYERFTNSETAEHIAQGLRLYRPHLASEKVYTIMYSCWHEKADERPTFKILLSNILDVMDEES
Description: as §1, §2, §3, §4, §5, §6, §7, §8, §9, §10, §11, §12, §13

BTK (C481S) = target: T3, BTK (C481S) (Homo sapiens, UniProt Q06187, C481S); test: In vitro kinase inhibition activity (33P-ATP radiometric filter assay), BTK (C481S); assay type: biochemical
T3 construct: purchased Signal Chem
T3 sequence (Q06187 whole entry C481S): as the sequence (Q06187 whole entry) above, with C481S counted along it
Description: as §1, §2, §3, §4, §5, §6, §7, §8, §9, §10, §11, §12, §13

Cc1nc(Nc2ncc(C(=O)Nc3c(C)cccc3Cl)s2)cc(N2CCN(CCO)CC2)n1 [Dasatinib, reference compound]
Clearance (in vitro): 0.0635 min⁻¹ | CLint scaled at 1 μM (in vitro): 211 mL/min/kg | half-life at 1 μM (in vitro): 10.9 min

Cc1nc(Nc2ncc(C(=O)Nc3c(C)cc(F)cc3Cl)s2)cc(N2CCN(CCO)CC2)n1 [The compound of Formula I, N-(2-chloro-4-fluoro-6-methylphenyl)-2-[[6-[4-(2-hydroxyethyl)-1-piperazinyl]-2-methyl-4-pyrimidinyl]amino]-5-thiazolecarboxamide]
IC50 (ABL1; ABL1 0.1 nM, ABLtide 20 μM, ATP 10 μM, 15 min compound incubation, 2 h reaction): 0.0042 nM | Ratio Dasatinib/the compound of Formula I (ABL1; ratio of IC50 values, ABL1): 5.95 | IC50 (BTK; BTK 8 nM, pEY 0.2 mg/ml, ATP 10 μM, 15 min compound incubation, 2 h reaction): 0.157 nM | Ratio Dasatinib/the compound of Formula I (BTK; ratio of IC50 values, BTK): 3.32 | IC50 (BTK (C481S); BTK (C481S) 6 nM, pEY 0.2 mg/ml, ATP 10 μM, 15 min compound incubation, 2 h reaction): 0.032 nM | Ratio Dasatinib/the compound of Formula I (BTK (C481S); ratio of IC50 values, BTK (C481S)): 3.53 | Clearance (in vitro): 0.0426 min⁻¹ | CLint scaled at 1 μM (in vitro): 142 mL/min/kg | half-life at 1 μM (in vitro): 16.3 min
